According to patent publication US20210379085A1, “HALOGENATED SALICYLANILIDES FOR TREATING THE SYMPTOMS OF DERMATITIS” (Union Therapeutics A/S, priority 2018, published 2021):

Columns and labels:
[1] = in vivo; conditions: dog
[2] = Plasma pharmacokinetics of oxyclozanide after topical Composition K in dogs (Example 5); type: in vivo, dog
Experimental: The cutaneous route (topical administration) was the route of administration for composition K on dogs. Composition K was applied evenly along the backbone starting from the base of the tail to the back of the neck.
For all animals of group A, a blood sample of around 4 ml was collected from the jugular vein using tubes containing lithium heparin at the following times (with tolerance of 10%): D-3a, D0a+1h, D0a+6h, D0a+12h, D0a+16h, D0a+24h, D0a+32h, D0a+48h, D3a, D5a et D7a.
Centrifugation (around 3500 revolutions/min, for 15 minutes at +4° C.) was performed a maximum of 30 minutes after sampling. The plasma was collected and then divided into two aliquots in tubes (Nunc 1.8 ml type) as follows: • S1 aliquot: around 0.5 ml • S2 aliquot: the remainder of the plasma (more than 0.5 ml)
The pharmacokinetic analysis was performed using Phoenix software (version 6.3, Pharsight, USA). Data points indicated as “missing” were systematically ignored during the calculation and therefore have no effect on the results. A missing status is assigned and no flag symbol is used. Values were excluded if, in the judgement of the pharmacokineticist, they were deemed not to be “[…].” If outliers were suspected, they were identified using the Outlier identification procedure of STATGRAPHICS.

Vd ([1]; iv, 2.5 mg/kg): ~0.6 L/kg
half-life ([1]; iv, 2.5 mg/kg): 38 h
bioavailability ([1]; po, 5 mg/kg): 48%
AUC(0-inf) ([1]; topical or ocular, 20 mg/kg): 55700 ng·h/mL
bioavailability ([1]; topical or ocular, 20 mg/kg): 12%
AUC(0-inf) ([2]; dog, plasma, topical or ocular, topical single 20 mg/kg Composition K, read-out: AUCinf in plasma (first value of the comparison, presumably Example 5)): 60600 ng·h/mL
concentrations of oxyclozanide in plasma after topical administration ([2]; topical 20 mg/kg Composition K): Low concentrations
bioavailability after topical administration (Example 5, by comparison of AUCinf with Example 4) ([2]; topical 20 mg/kg Composition K, not calculated, no intravenous route in this study): about 12%
SMILES: O=C(Nc1cc(Cl)cc(Cl)c1O)c1c(O)c(Cl)cc(Cl)c1Cl [Oxyclozanide]
